Experimental data taken from patent US20250144067A1, “PERSONALIZED STARVATION THERAPY FOR CANCER” (Faeth Therapeutics, Inc., priority 2021, published 2025).
Where a name gives a salt, the structure may show the parent alone. Read-outs that look alike come from different tables or passages of the source.

Key:
[1] = test system: NCI-H292 lung cancer cells; assay: FDA drug screening, complete media vs cholesterol-free media without statin (TABLE 1); format: cell-based, human
[2] = test system: NCI-H292 lung cancer cells; assay: FDA drug screening, complete media vs cholesterol-free media with simvastatin (TABLE 2); format: cell-based, human
[3] = NCI-H292 cells, cholesterol-free media without statin
[4] = complete vs cholesterol-free media, […]
[5] = NCI-H292 cells, FDA drug library screen, cholesterol-free media with simvastatin 0.04 μM
[6] = NCI-H292 cells, FDA drug library screen, complete media
[7] = complete media minus cholesterol-free media + simvastatin, […]
[8] = Complete minus Cholesterol-free, greater than 0 enhanced anti-cancer activity, about 0 neutral, below 0 antagonists
[9] = NCI-H292 cells in cholesterol-free media without statin
[10] = NCI-H292 cells in complete media
[11] = complete media vs cholesterol-free media + simvastatin (0.04 μM), >0 enhanced anti-cancer activity, about 0 neutral, <0 antagonist
[12] = Complete minus Cholesterol-free, >0 enhanced anti-cancer activity, about 0 neutral, <0 antagonist
[13] = NCI-H292 cells, drug in cholesterol-free media with simvastatin 0.04 μM
[14] = NCI-H292 cells, drug in complete media
[15] = NCI-H292 cells, cholesterol-free media without statin, FDA drug library screen
[16] = NCI-H292 cells, complete media, FDA drug library screen
[17] = complete vs cholesterol-free media, >0 enhanced anti-cancer activity, about 0 neutral, <0 antagonist
[18] = Complete minus Cholesterol-free, greater than 0 enhanced anti-cancer activity, about 0 neutral, below 0 antagonist
[19] = NCI-H292 cells, FDA drug library screen, cholesterol-free media without statin
[20] = complete media minus cholesterol-free media + simvastatin, >0 enhanced anti-cancer activity, about 0 neutral, <0 antagonist
[21] = NCI-H292 cells, cholesterol-free media with simvastatin 0.04 μM, FDA drug library screen (TABLE 2)
[22] = NCI-H292 cells, complete media, FDA drug library screen (TABLE 2)
[23] = complete media minus cholesterol-free media + simvastatin (0.04 μM), >0 enhanced anti-cancer activity, about 0 neutral, <0 antagonist
[24] = complete vs cholesterol-free media, greater than 0 enhanced anti-cancer activity, about 0 neutral, below 0 antagonists

Row | Compound | Cholesterol-free [1, 3] | Complete ([1]; NCI-H292 cells, complete media) | Cholesterol-free media + simvastatin (0.04 μM) [2, 5] | Complete Media [2, 6] | Difference [2, 11] | Difference [1, 12] | Cholesterol-free [1, 15] | Complete [1, 16] | also measured
1 | O=[N+]([O-])O[C@@H]1CO[C@H]2[C@@H]1OC[C@@H]2O [Isosorbide mononitrate] | 1.459 | 1.127 | 0.8339 | 1.021 |  |  |  |  | Difference [1, 4]: −0.33; Difference [2, 7]: 0.19
2 | CCCCN1C[C@H](O)[C@@H](O)[C@H](O)[C@H]1CO [Miglustat (hydrochloride)] |  |  | 0.8113 | 0.7082 | −0.10 |  |  |  | Difference [1, 8]: −0.51; Cholesterol-free [1, 9]: 1.836; Complete [1, 10]: 1.323
3 | Cc1ccc(NC(=O)C2(c3ccc4c(c3)OC(F)(F)O4)CC2)nc1-c1cccc(C(=O)O)c1 [Lumacaftor] | 1.044 | 0.854 |  |  | −0.20 | −0.19 |  |  | Cholesterol-free media + simvastatin (0.04 μM) [2, 13]: 1.744; Complete Media [2, 14]: 1.539
4 | CC(C)(C)NC(=O)N[C@H](C(=O)N1C[C@H]2[C@@H]([C@H]1C(=O)NC(CC1CCC1)C(=O)C(N)=O)C2(C)C)C(C)(C)C (stereo partly shown) [Boceprevir] | 1.3 | 1.001 | 1.494 | 1.414 | −0.08 | −0.30 |  |  | 
5 | CCCCC1OC(=O)c2ccccc21 (stereo not shown) [Butylphthalide] |  |  |  |  | −0.17 |  | 0.6966 | 1.343 | Difference [1, 17]: 0.65; Cholesterol-free media + simvastatin (0.04 μM) [2, 13]: 1.292; Complete Media [2, 14]: 1.12
6 | O=C(Nc1cnn2ccc(N3CCC[C@@H]3c3cc(F)ccc3F)nc12)N1CC[C@H](O)C1 [Larotrectinib] |  |  |  |  |  |  |  |  | Difference [1, 18]: −0.08; Cholesterol-free [1, 19]: 1.012; Complete [1, 6]: 0.9305; Cholesterol-free media + simvastatin (0.04 μM) ([2]; NCI-H292 cells, cholesterol-free media with simvastatin 0.04 μM, cell growth value in FDA drug screen): 1.092; Complete Media ([2]; NCI-H292 cells, complete media, cell growth value in FDA drug screen): 1.143; Difference [2, 20]: 0.05
7 | Cn1cnc2c(F)c(Nc3ccc(Br)cc3F)c(C(=O)NOCCO)cc21 [Binimetinib] |  |  | 0.4887 | 0.381 | −0.11 | 0.01 | 0.1731 | 0.1825 | 
8 | NC(=O)OC[C@H](N)Cc1ccccc1 [Solriamfetol (hydrochloride)] |  |  | 0.997 | 1.138 |  |  | 1.017 | 1 | Difference ([1]; Complete minus Cholesterol-free, […]): −0.02; Difference [2, 7]: 0.14
9 | CC(C)(C)c1nc(-c2cccc(NS(=O)(=O)c3c(F)cccc3F)c2F)c(-c2ccnc(N)n2)s1 [Dabrafenib] |  |  |  |  |  |  |  |  | Difference [1, 18]: −0.18; Cholesterol-free [1, 19]: 0.7255; Complete [1, 6]: 0.5433; Cholesterol-free media + simvastatin (0.04 μM) [2, 21]: 0.7299; Complete Media [2, 22]: 0.7037; Difference [2, 23]: −0.03
10 | Thymopentin (acetate) |  |  |  |  |  |  | 0.9838 | 1.095 | Difference [1, 4]: 0.11; Complete Media [2, 22]: 1.151; Difference ([2]; complete media minus cholesterol-free media + simvastatin (0.04 μM), […]): 0.00
11 | C#C[C@]1(O)CC[C@H]2[C@@H]3CCC4=CC(=O)CCC4=C3C=C[C@@]21CC [Gestrinone] |  |  | 1.007 | 1.693 |  |  | 0.8898 | 2.026 | Difference [1, 4]: 1.14; Difference [2, 7]: 0.69
12 | COC(=O)/C=C/C(=O)OCCN1C(=O)CCC1=O [Diroximel fumarate] | 1.046 | 0.7458 | 0.9299 | 1.101 |  | −0.30 |  |  | Difference [2, 20]: 0.17
13 | CCN(CC)Cc1cc(Nc2ccnc3cc(Cl)ccc23)ccc1O [Amodiaquine (dihydrochloride dihydrate)] |  |  | 1.209 | 1.606 |  |  | 0.9158 | 1.353 | Difference [1, 17]: 0.44; Difference [2, 20]: 0.40
14 | Cc1ncc(C[n+]2csc(CCO)c2C)c(N)n1 [Thiamine monochloride] | 0.9486 | 0.7138 | 1.042 | 0.9007 | −0.14 | −0.23 |  |  | 
15 | CN1CC[C@@H](NC(=O)Nc2ccc(C#N)cc2)C[C@@H]1c1nc2ccccc2[nH]1 [Glasdegib] | 1.398 | 0.9821 | 0.7992 | 0.9809 |  |  |  |  | Difference [1, 24]: −0.42; Difference [2, 20]: 0.18
16 | O=C1NC(=O)C(c2ccccc2)(c2ccccc2)N1 [Phenytoin (sodium)] | 1.197 | 0.9283 |  |  |  | −0.27 |  |  | Cholesterol-free media + simvastatin (0.04 μM) [2, 21]: 0.8893; Complete Media [2, 22]: 0.8884; Difference [2, 23]: 0.00
17 | Fluvoxamine (maleate) |  |  |  |  |  |  |  |  | Difference [1, 18]: −0.11; Cholesterol-free [1, 19]: 1.142; Cholesterol-free media + simvastatin (0.04 μM) [2, 21]: 0.9929; Complete Media [2, 22]: 0.9426; Difference [2, 23]: −0.05
18 | CCCNCC(O)COc1ccccc1C(=O)CCc1ccccc1 (stereo not shown) [Propafenone (hydrochloride)] |  |  |  |  |  | 0.02 | 1.064 | 1.086 | Cholesterol-free media + simvastatin (0.04 μM) [2, 21]: 1.11; Complete Media [2, 22]: 1.1; Difference [2, 23]: −0.01
19 | C[C@H](CCC(=O)O)[C@H]1CC[C@H]2[C@@H]3C[C@H](O)[C@@H]4C[C@H](O)CC[C@]4(C)[C@H]3CC[C@]12C [Hyodeoxycholic acid] | 1.462 | 1.016 | 0.7549 | 0.9966 |  |  |  |  | Difference [1, 24]: −0.45; Difference [2, 20]: 0.24
20 | CCCCc1nc(Cl)c(CO)n1Cc1ccc(-c2ccccc2-c2nn[nH]n2)cc1 [Losartan (potassium)] | 1.05 | 0.8102 |  |  | −0.21 | −0.24 |  |  | Cholesterol-free media + simvastatin (0.04 μM) [2, 13]: 1.17; Complete Media [2, 14]: 0.9634
21 | CC(C)(C)CC(C)(C)c1ccc(O)c(Cc2ccc(Cl)cc2Cl)c1 [Clofoctol] |  |  | 1.057 | 1.232 |  |  |  |  | Difference [1, 8]: −0.85; Cholesterol-free [1, 9]: 1.815; Complete [1, 10]: 0.9672; Difference [2, 20]: 0.17
22 | CN1C(C(=O)Nc2ccccn2)=C(O)c2sccc2S1(=O)=O [Tenoxicam] | 1.354 | 0.9821 | 0.6836 | 0.8819 |  |  |  |  | Difference [1, 24]: −0.37; Difference [2, 20]: 0.20
23 | C=C[C@H]1C[N@@]2CC[C@H]1C[C@@H]2[C@@H](O)c1ccnc2ccc(OC)cc12 [Quinidine] |  |  |  |  | −0.29 |  |  | 1.951 | Difference [1, 17]: 0.93; Complete Media ([2]; NCI-H292 cells, FDA library drug in complete media): 0.8492
24 | CC(=O)Nc1ccc(OC(=O)c2ccccc2OC(C)=O)cc1 [Benorilate] | 1.212 | 0.8832 | 1.253 | 1.11 | −0.14 |  |  |  | Difference [1, 24]: −0.33
25 | CC(=O)NC[C@H]1CN(c2ccc(N3CCOCC3)c(F)c2)C(=O)O1 [Linezolid] |  |  |  |  | −0.19 | 0.04 | 0.9483 | 0.9881 | Cholesterol-free media + simvastatin (0.04 μM) [2, 13]: 1.38; Complete Media [2, 14]: 1.187
26 | CNCC(=O)N[C@@H](CCCN=C(N)N)C(=O)N[C@H](C(=O)N[C@@H](Cc1ccc(O)cc1)C(=O)N[C@H](C(=O)N[C@@H](Cc1cnc[nH]1)C(=O)N1CCC[C@H]1C(=O)N[C@@H](C)C(=O)O)C(C)C)C(C)C [Saralasin (TFA)] |  |  |  |  |  |  | 1.11 | 1.396 | Difference [1, 4]: 0.29; Cholesterol-free media + simvastatin (0.04 μM) ([2]; NCI-H292 cells, cholesterol-free media with simvastatin 0.04 μM, […]): 0.7862; Complete Media ([2]; NCI-H292 cells, complete media, […]): 0.8195; Difference [2, 7]: 0.03
27 | C[C@]12CC[C@H]3[C@@H](CC[C@@]45O[C@@H]4C(O)=C(C#N)C[C@]35C)[C@@H]1CC[C@@H]2O [Trilostane] | 1.238 | 1.003 |  |  | −0.25 | −0.23 |  |  | Cholesterol-free media + simvastatin (0.04 μM) [2, 13]: 1.758; Complete Media [2, 14]: 1.505
28 | Prednisolone (hemisuccinate) |  |  |  |  |  |  |  |  | Cholesterol-free [1]: 0.8784; Complete [1]: 0.4751; Difference [1]: −0.40; Cholesterol-free media + simvastatin (0.04 μM) [2]: 0.7218; Difference [2]: 0.06
29 | Clc1ccc2c(c1)CCc1cccnc1C2=C1CCNCC1 [Desloratadine] |  |  |  |  |  |  |  |  | Cholesterol-free [1]: 1.114; Complete [1]: 0.8419; Difference [1]: −0.27; Cholesterol-free media + simvastatin (0.04 μM) [2]: 0.922; Complete Media [2]: 0.6254; Difference [2]: −0.30
